Assay [1] concerns CCRF-CEM. Put plainly: Concentration required to inhibit replication of CCRF-CEM deoxycytidine kinase deficient variant CCRF-CEM(dCK-). The conditions noted are these: Homo sapiens, read-out: ED50 (the source's name). Format: functional.
Assay [2] relates to CCRF-CEM. Description: Concentration required to inhibit replication of CCRF-CEM cell lines by 50% after 72 hr incubation. Format: functional. Particulars: Homo sapiens, read-out: ED50 (the source's name).
Assay [3] relates to L1210. Description: Concentration required to inhibit replication of L1210 cell lines by 50% after 72 hr incubation. The conditions noted are these: Mus musculus, L1210, 72 h; read-out: ED50 (the source's name). Format: functional.
For assay [4], the system named is Mus musculus. Put plainly: (§1) Average survival time includes only those mice that died prior to day 60 at 75 mg/kg. Format: functional.
The subject of assay [5] is Mus musculus. Put plainly: (§2) Average survival time includes only those mice that died prior to day 60 at 25 mg/kg. The format is functional.
For assay [6], the system named is Mus musculus. Put plainly: (§3) Average survival time includes only those mice that died prior to day 60 at 50 mg/kg. Format: functional.
For assay [7], the system named is Mus musculus. Description: Long time survivors are the number mice that survived for >60 days relative to the number of treated mice at 75 mg/kg; 0 / 5. The format is functional, organism-based. Further details: dose 75 mg/kg.
Assay [8] has as its system Mus musculus. Put plainly: Long time survivors are the number mice that survived for >60 days relative to the number of treated mice 25 mg/kg; 0 / 5. The format is functional, organism-based. Details: dose 25 mg/kg.
The test system of assay [9] is Mus musculus. Put plainly: Long time survivors are the number mice that survived for >60 days relative to the number of treated mice at 50 mg/kg; 0 / 5. The format is functional, organism-based. Further details: dose 50 mg/kg.
The test system of assay [10] is Mus musculus. Description: (§4) Ratio of survival time of treated to control mice at 25 mg/kg. The format is functional.
Assay [11] concerns Mus musculus. Put plainly: (§5) Ratio of survival time of treated to control mice at 50 mg/kg. Format: functional.
Assay [12] has as its system Mus musculus. Put plainly: (§6) Ratio of survival time of treated to control mice at 75 mg/kg. Format: functional.
For assay [13], the system named is Mus musculus. Put plainly: Death due to toxicity occurring at a maximum body weight decrease of 10 to 22% from the average post injection body weight at 25 mg/kg; 2 / 5. The format is functional, organism-based. Further details: dose 25 mg/kg.
For assay [14], the system named is Mus musculus. Put plainly: Death due to toxicity occurring at a maximum body weight decrease of 10 to 22% from the average post injection body weight at 50 mg/kg; 5 / 5. The format is functional, organism-based. Further details: dose 50 mg/kg.
Assay [15] concerns Mus musculus. Put plainly: Death due to toxicity occurring at a maximum body weight decrease of 10 to 22% from the average post injection body weight at 75 mg/kg; 5 / 5. The format is functional, organism-based. Further details: dose 75 mg/kg.
The test system of assay [16] is P388. Description: Concentration required to inhibit replication of P388 cell lines by 50% after 72 hr incubation. The format is functional. Particulars: Mus musculus, P388, 72 h; read-out: ED50 (the source's name).
Assay [17] relates to CCRF S-180. Put plainly: Concentration required to inhibit replication of S-180 cell lines by 50% after 72 hr incubation. The format is functional. Particulars: Mus musculus, CCRF S-180, 72 h; read-out: ED50 (the source's name).
For assay [18], the system named is Human alphaherpesvirus 1. Put plainly: Concentration required to inhibit 90% of virus yield during 24-h growth period in HSV-1 cell lines. Format: functional.
Assay [19] deals with HSV-2. Put plainly: Concentration required to inhibit 90% of virus yield during 24-h growth period in HSV-2 cell lines. Format: functional, Human alphaherpesvirus 2.
Assay [20] has as its system Mus musculus. Description: T/C*100 represents the ratio of survival time of treated to control mice *100 at 50 mg/kg. The format is functional.
For assay [21], the system named is Mus musculus. Description: T/C*100 represents the ratio of survival time of treated to control mice *100 at 75 mg/kg. The format is functional.
Assay [22] concerns L1210. The description is as §4. Format: functional, Mus musculus.
Assay [23] relates to L1210. The assay is described as §5. Format: functional, Mus musculus.
The test system of assay [24] is L1210. The assay is described as §6. Format: functional, Mus musculus.
For assay [25], the system named is L1210. The assay is described as §2. Format: functional, Mus musculus.
The test system of assay [26] is L1210. The description is as §3. The format is functional, Mus musculus.
Assay [27] has as its system L1210. The assay is described as §1. The format is functional, Mus musculus.

Molecules are shown by their SMILES. Active and inactive are the calls of the source. The calls are words filed in the database; no cut-off is given here.

As to `Nc1ccn([C@@H]2O[C@H](CO)[C@@H](O)[C@@H]2O)c(=O)n1` [CYTARABINE], the EC50 in assay [1] was determined as 120 µM; in assay [2], 0.006 µM; in assay [3] it was 0.05 µM; in assay [16], 0.02 µM; in [17] it was 0.2 µM. The “Average survival (days)” value in [4] came out at 8.4; in [5] it was 19.7; in assay [6], 9.6. In addition, the Long-term survivors entry in assay [7], in assay [8] and in assay [9] was “inactive” throughout. Further, the values for the T/C in assay [10], in [11] and in assay [12] were 258, 126 and 111, respectively. Also, the Toxic deaths result in assay [13] was “Partially active”. Moreover, the Toxic deaths entry in assay [14] and in [15] was “Active” in each case.

For `C=C1C(CO)OC(n2ccc(=O)[nH]c2=O)C1O` (stereo not given), the EC50 in assay [2], in assay [3], in [16] and in assay [17] was > 100 µM each time.

`C=C1C(CO)OC(n2ccc(N)nc2=O)C1O` (stereo not given): the EC50 in assay [2], in assay [3], in assay [16] and in assay [17] was > 100 µM throughout. The ID90 in assay [18] and in [19] was >250 µM in each case.

Consider `C=C1[C@H](n2cc(C)c(=O)[nH]c2=O)O[C@H](CO)[C@H]1O`, for which the EC50 is 10 µM in [2], > 100 µM in assay [3], > 100 µM in assay [16] and > 100 µM in assay [17].

Consider `C=C1C(n2ccc(N)nc2=O)O[C@H](CO)[C@@H]1O` (stereo not given in full), for which the EC50 came out at 77 µM in assay [1]; 0.03 µM in assay [2]; 0.3 µM in [3]; 0.4 µM in assay [16]; 1.5 µM in assay [17]. Besides, the ID90 in assay [18] amounted to 26 µM; in assay [19], 5 µM. Further, the “Average survival (days)” value in assay [4] is 20.8; in assay [5], 21.6; in assay [6], 21. The figures for the T/C in assay [10], in assay [20] and in assay [21] were 284, 276 and 273, respectively.

Turning to `C=C1[C@H](n2cc(F)c(=O)[nH]c2=O)O[C@H](CO)[C@H]1O`, the EC50 in assay [2] was 30 µM; in assay [3], 22 µM; in assay [16], > 100 µM; in [17] it was 6.5 µM. The ID90 in assay [18] and in assay [19] was >250 µM each time.

Regarding `C=C1[C@H](n2cc(C)c(N)nc2=O)O[C@H](CO)[C@H]1O`, the EC50 in [2] was 22 µM; in assay [3], > 100 µM; in [16], > 100 µM; in assay [17], > 100 µM. Moreover, the ID90 in assay [18] is 32 µM; in assay [19], 125 µM.

`C=C1[C@H](n2cc(F)c(N)nc2=O)O[C@H](CO)[C@H]1O`: the EC50 was determined as 330 µM in assay [1]; 0.05 µM in [2]; 1.2 µM in assay [3]; 0.6 µM in assay [16]; 1.5 µM in assay [17]. Moreover, the ID90 in assay [18] was 50 µM; in assay [19] it was 5 µM. Further, the T/C in [22] is recorded as 316; in [23], 279; in [24], 243. Moreover, the “Average survival (days)” value in assay [25] is on record as 24; in [26] it was 21.2; in assay [27], 18.5.

Consider `C=C1[C@H](n2ccc(=O)[nH]c2=O)O[C@H](CO)[C@H]1O`, for which the EC50 in assay [2], in assay [3], in assay [16] and in assay [17] was > 100 µM throughout. The ID90 in [18] and in assay [19] was 50 µM throughout.
